Source: PubChem BioAssay AID2060490 (Molecular Pharmacology Branch, DTP, NCI, 2025)

Tested on: 885512-296-R-J2-PDC complex spheroid viability
Experiment: Anticancer human tumor 885512-296-R-J2-PDC patient-derived breast carcinoma cell line growth inhibition [GQUAD]
Conditions: for IC50: curve of first compound; for viability, T/C: stronger effect = lower value
Procedure, shortened: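 Tumor cells were grown as complex spheroids with HUVEC endothelial cells and mesenchymal stem cells as stroma. G-quadruplex stabilizers were combined with targeted agents over half-log dilutions from near the clinical Cmax, or from 10 microM.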

[1] = second compound 0.0316 µM, first compound 0.000999 µM
[2] = second compound 0.0316 µM, first compound 0.00316 µM
[3] = second compound 0.0316 µM, first compound 0.00999 µM
[4] = second compound 0.0316 µM, first compound 0.0316 µM
[5] = second compound 0.0316 µM, first compound 0.0999 µM
[6] = second compound 0.0316 µM, first compound 0.316 µM
[7] = second compound 0.1 µM, first compound 0.000999 µM
[8] = second compound 0.1 µM, first compound 0.00316 µM
[9] = second compound 0.1 µM, first compound 0.00999 µM
[10] = second compound 0.1 µM, first compound 0.0316 µM
[11] = second compound 0.1 µM, first compound 0.0999 µM
[12] = second compound 0.1 µM, first compound 0.316 µM
[13] = second compound 0.316 µM, first compound 0.000999 µM
[14] = second compound 0.316 µM, first compound 0.00316 µM
[15] = second compound 0.316 µM, first compound 0.00999 µM
[16] = second compound 0.316 µM, first compound 0.0316 µM
[17] = second compound 0.316 µM, first compound 0.0999 µM
[18] = second compound 0.316 µM, first compound 0.316 µM
[19] = second compound 1 µM, first compound 0.000999 µM
[20] = second compound 1 µM, first compound 0.00316 µM
[21] = second compound 1 µM, first compound 0.00999 µM
[22] = second compound 1 µM, first compound 0.0316 µM
[23] = second compound 1 µM, first compound 0.0999 µM
[24] = second compound 1 µM, first compound 0.316 µM
[25] = second compound 3.16 µM, first compound 0.000999 µM
[26] = second compound 3.16 µM, first compound 0.00316 µM
[27] = second compound 3.16 µM, first compound 0.00999 µM
[28] = second compound 3.16 µM, first compound 0.0316 µM
[29] = second compound 3.16 µM, first compound 0.0999 µM
[30] = second compound 3.16 µM, first compound 0.316 µM
[31] = second compound 10 µM, first compound 0.000999 µM
[32] = second compound 10 µM, first compound 0.00316 µM
[33] = second compound 10 µM, first compound 0.00999 µM
[34] = second compound 10 µM, first compound 0.0316 µM
[35] = second compound 10 µM, first compound 0.0999 µM
[36] = second compound 10 µM, first compound 0.316 µM
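Also: spheroids exposed to the compounds for one week.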
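For viability, T/C in this document: percent of tumor spheroid viability relative to DMSO vehicle control wells.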

What does the source list for Cc1[nH]c2ccccc2c1CCNCc1ccc(/C=C/C(=O)NO)cc1 + Cc1cnc(CNC(=O)c2c(=O)c3ccc(N4CCCN(C)CC4)nc3n3c2sc2ccccc23)cn1?
IC50 (second compound 0.0316 µM): 15 nM; IC50 (second compound 0.1 µM): < 0.999 nM; IC50 (second compound 0.316 µM): < 0.999 nM; IC50 (second compound 1 µM): < 0.999 nM; IC50 (second compound 3.16 µM): < 0.999 nM; IC50 (second compound 10 µM): < 0.999 nM; viability, T/C [1]: 83.8%; viability, T/C [2]: 80.2%; viability, T/C [3]: 52%; viability, T/C [4]: 34.5%; viability, T/C [5]: 27.9%; viability, T/C [6]: 5.52%; viability, T/C [7]: 52.9%; viability, T/C [8]: 43.2%; viability, T/C [9]: 38.6%; viability, T/C [10]: 36.9%; viability, T/C [11]: 29.8%; viability, T/C [12]: 6.34%; viability, T/C [13]: 27.3%; viability, T/C [14]: 16%; viability, T/C [15]: 15.3%; viability, T/C [16]: 22.8%; viability, T/C [17]: 25.1%; viability, T/C [18]: 5.41%; viability, T/C [19]: 17.4%; viability, T/C [20]: 14.9%; viability, T/C [21]: 19.2%; viability, T/C [22]: 15.4%; viability, T/C [23]: 13.9%; viability, T/C [24]: 0.1%; viability, T/C [25]: 19.2%; viability, T/C [26]: 17.6%; viability, T/C [27]: 0.21%; viability, T/C [28]: 0.22%; viability, T/C [29]: 0.15%; viability, T/C [30]: 0.13%; viability, T/C [31]: 0.17%; viability, T/C [32]: 0.17%; viability, T/C [33]: 0.24%; viability, T/C [34]: 0.22%; viability, T/C [35]: 0.22%; viability, T/C [36]: 0.23%

With C#Cc1c(F)ccc2cc(O)cc(-c3ncc4c(N5CC6CCC(C5)N6)nc(OCC56CCCN5CC(F)C6)nc4c3F)c12 (stereo unspecified) + CN(C)c1ccc(Nc2c3ccc(NC(=O)CCN4CCCC4)cc3nc3cc(NC(=O)CCN4CCCC4)ccc23)cc1 as the compound, how does the IC50 (second compound 0.0316 µM) read?
The IC50 was greater than 10000 nM.

What about the IC50 (second compound 0.1 µM) of the same compound?
The IC50 was greater than 10000 nM.

And the IC50 (second compound 0.316 µM)?
The IC50 was greater than 10000 nM.

And the IC50 (second compound 1 µM)?
The IC50 was greater than 10000 nM.

And the IC50 (second compound 3.16 µM)?
Its IC50 is 7980 nM.

And the IC50 (second compound 10 µM)?
Its IC50 is less than 31.6 nM.

What about the viability, T/C [4] of the same compound?
The viability, T/C was 108%.

And the viability, T/C (second compound 0.0316 µM, first compound 0.1 µM)?
Its viability, T/C is 95.7%.

And the viability, T/C [6]?
The viability, T/C was 105%.

And the viability, T/C (second compound 0.0316 µM, first compound 1 µM)?
The viability, T/C was 96.8%.

And the viability, T/C (second compound 0.0316 µM, first compound 3.16 µM)?
The viability, T/C was 106%.

What about the viability, T/C (second compound 0.0316 µM, first compound 10 µM) of the same compound?
Its viability, T/C is 87.6%.

And the viability, T/C [10]?
Its viability, T/C is 110%.

And the viability, T/C (second compound 0.1 µM, first compound 0.1 µM)?
The viability, T/C was 86.5%.

What about the viability, T/C [12] of the same compound?
Its viability, T/C is 99.8%.

And the viability, T/C (second compound 0.1 µM, first compound 1 µM)?
The viability, T/C was 98.4%.

What about the viability, T/C (second compound 0.1 µM, first compound 3.16 µM) of the same compound?
The viability, T/C was 89%.

And the viability, T/C (second compound 0.1 µM, first compound 10 µM)?
Its viability, T/C is 85.4%.

What about the viability, T/C [16] of the same compound?
The viability, T/C was 105%.

What about the viability, T/C (second compound 0.316 µM, first compound 0.1 µM) of the same compound?
Its viability, T/C is 99.3%.

What about the viability, T/C [18] of the same compound?
Its viability, T/C is 96.6%.

And the viability, T/C (second compound 0.316 µM, first compound 1 µM)?
The viability, T/C was 89.2%.

What about the viability, T/C (second compound 0.316 µM, first compound 3.16 µM) of the same compound?
The viability, T/C was 91.4%.

What about the viability, T/C (second compound 0.316 µM, first compound 10 µM) of the same compound?
The viability, T/C was 87.5%.

What about the viability, T/C [22] of the same compound?
Its viability, T/C is 88.9%.

What about the viability, T/C (second compound 1 µM, first compound 0.1 µM) of the same compound?
The viability, T/C was 97.7%.

And the viability, T/C [24]?
The viability, T/C was 99%.

And the viability, T/C (second compound 1 µM, first compound 1 µM)?
Its viability, T/C is 102%.

And the viability, T/C (second compound 1 µM, first compound 3.16 µM)?
Its viability, T/C is 94.5%.

And the viability, T/C (second compound 1 µM, first compound 10 µM)?
The viability, T/C was 104%.

What about the viability, T/C [28] of the same compound?
Its viability, T/C is 95.3%.

And the viability, T/C (second compound 3.16 µM, first compound 0.1 µM)?
The viability, T/C was 106%.

And the viability, T/C [30]?
Its viability, T/C is 97.2%.

And the viability, T/C (second compound 3.16 µM, first compound 1 µM)?
Its viability, T/C is 89.4%.

What about the viability, T/C (second compound 3.16 µM, first compound 3.16 µM) of the same compound?
The viability, T/C was 86.1%.

What about the viability, T/C (second compound 3.16 µM, first compound 10 µM) of the same compound?
Its viability, T/C is 41.2%.

What about the viability, T/C [34] of the same compound?
Its viability, T/C is 21.5%.

What about the viability, T/C (second compound 10 µM, first compound 0.1 µM) of the same compound?
The viability, T/C was 15.8%.

And the viability, T/C [36]?
Its viability, T/C is 18.9%.

And the viability, T/C (second compound 10 µM, first compound 1 µM)?
Its viability, T/C is 13.7%.

What about the viability, T/C (second compound 10 µM, first compound 3.16 µM) of the same compound?
Its viability, T/C is 13.9%.

And the viability, T/C (second compound 10 µM, first compound 10 µM)?
Its viability, T/C is 1.6%.

What does the source list for CCc1c2c(nc3ccc(O)cc13)-c1cc3c(c(=O)n1C2)COC(=O)[C@]3(O)CC + Cc1[nH]c2ccc(F)cc2c1-c1nc2c3cccnc3c3ncccc3c2[nH]1?
IC50 (second compound 0.0316 µM): < 0.999 nM; IC50 (second compound 0.1 µM): < 0.999 nM; IC50 (second compound 0.316 µM): < 0.999 nM; IC50 (second compound 1 µM): < 0.999 nM; IC50 (second compound 3.16 µM): < 0.999 nM; IC50 (second compound 10 µM): < 0.999 nM; viability, T/C [1]: 26.3%; viability, T/C [2]: 9.48%; viability, T/C [3]: 6.06%; viability, T/C [4]: 3.24%; viability, T/C [5]: 2.09%; viability, T/C [6]: 1.42%; viability, T/C [7]: 25.8%; viability, T/C [8]: 9.37%; viability, T/C [9]: 5.76%; viability, T/C [10]: 2.48%; viability, T/C [11]: 1.88%; viability, T/C [12]: 1.48%; viability, T/C [13]: 28.2%; viability, T/C [14]: 9.08%; viability, T/C [15]: 4.66%; viability, T/C [16]: 2.27%; viability, T/C [17]: 1.56%; viability, T/C [18]: 1.34%; viability, T/C [19]: 26%; viability, T/C [20]: 8.76%; viability, T/C [21]: 2.75%; viability, T/C [22]: 1.69%; viability, T/C [23]: 1.68%; viability, T/C [24]: 1.43%; viability, T/C [25]: 3.36%; viability, T/C [26]: 2.2%; viability, T/C [27]: 2.07%; viability, T/C [28]: 1.56%; viability, T/C [29]: 1.71%; viability, T/C [30]: 2.07%; viability, T/C [31]: 1.69%; viability, T/C [32]: 1.34%; viability, T/C [33]: 1.31%; viability, T/C [34]: 1.08%; viability, T/C [35]: 0.89%; viability, T/C [36]: 1.57%
